According to patent US11834463B2, “High affinity macrocyclic FKB51-inhibitors for treatment of psychiatric disorders” (priority 2020, dated 2023):
Where “and” joins values, the source holds several entries; their conditions need not be identical. Equal entries are not always repeated. Where two headings read alike, the source gives them in different places.

Legend:
FKBP51FK1 = target: T1, FKBP51FK1 (Homo sapiens, UniProt Q13451); assay: biochemical
T1 sequence (Q13451 42-130 limits assumed): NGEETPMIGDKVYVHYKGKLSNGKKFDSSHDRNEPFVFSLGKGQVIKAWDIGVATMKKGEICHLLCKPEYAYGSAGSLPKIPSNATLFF
Method: (§1) All macrocyclic compounds were tested in a competitive fluorescence polarization assay for binding towards FKBP51 as well as the homologs FKBP12, FKBP12.6 and FKBP52 (Table 1).
(§2) Example 8: […] of the Macrocyclic FKBP51 Ligands by SPPS

[1] = not given; remark: listed apart in the source
FKBP12.6 = FKBP12.6 (Homo sapiens, UniProt P68106); assay: competitive fluorescence polarization assay, binding to FKBP12.6
Method: as §1, §2

FKBP12 = FKBP12 (Homo sapiens, UniProt P62942); assay: competitive fluorescence polarization assay, binding to FKBP12
Method: as §1, §2

[2] = FKBP51FK1 Ki [μM], Table 2, [a] standard error from three, [c] error from two independent measurements
[3] = affinity, same values as Table 2 FKBP51FK1
[4] = Table 1, competitive Fluorescence Polarization Assay, read-out: Ki [nM] FKBP12.6
[5] = Table 1, competitive Fluorescence Polarization Assay, read-out: Ki [nM] FKBP12
[6] = Ki [nM] FKBP51FK1, Table 1, competitive Fluorescence Polarization Assay

Sequence of FKBP12 (P62942 whole entry): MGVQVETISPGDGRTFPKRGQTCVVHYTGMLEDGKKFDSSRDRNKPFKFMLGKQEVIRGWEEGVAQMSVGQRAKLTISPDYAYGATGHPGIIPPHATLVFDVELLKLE
Sequence of FKBP12.6 (P68106 whole entry): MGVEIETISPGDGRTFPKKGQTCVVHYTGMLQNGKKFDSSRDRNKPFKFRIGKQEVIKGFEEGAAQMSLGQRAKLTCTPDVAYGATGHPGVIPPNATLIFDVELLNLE

Structure (SMILES)	Ki (FKBP12.6; [4]) [nM]	Ki (FKBP12; [5]) [nM]	Ki (FKBP51FK1; [6]) [µM]	further results
COc1ccc(CC[C@@H]2OC(=O)[C@H]3CCCCN3C(=O)[C@@H](C3CCCCC3)c3cc(OC)c(c(OC)c3)OCCCOc3cccc2c3)cc1OC	–	–	–	ring closure, isolated yield (from COc1ccc(CC[C@H](OC(=O)[C@H]2CCCCN2C(=O)[C@H](c2cc(OC)c(OCCCI)c(OC)c2)C2CCCCC2)c2cccc(O)c2)cc1OC, ether bond, 19-membered ring, K2CO3 (2 equiv), MeCN, 0.5 mM): 81%
COc1ccc(CC[C@H]2OC(=O)[C@@H]3CCCCN3C(=O)[C@@H](C3CCCCC3)NC(=O)C(C)(C)NC(=O)COc3cc(O)cc2c3)cc1OC [Compound 103, (2R,5S,12R)-12-cyclohexyl-2-[2-(3,4-dimethoxyphenyl)ethyl]-22-hydroxy-15,15-dimethyl-3,19-dioxa-10,13,16-triazatricyclo[18.3.1.0^5,10]tetracosa-1(24),20,22-triene-4,11,14,17-tetrone]	–	–	–	affinity (in words) (FKBP51FK1): bound similarly to the glycine derivative 83; Ki (FKBP51FK1; [2]): 0.37 µM; ring closure, isolated yield (from H-Aib-dChg-Pip-[O-(R)-CH(CH2CH2-3,4-dimethoxyphenyl)-C6H3(O-resin)-OCH2CO]-OH?, amide bond, 17-membered ring, resin, with chain assembly): 20%
COc1ccc(CC[C@@H]2OC(=O)[C@H]3CCCCN3C(=O)[C@@H](C3CCCCC3)c3cc(OC)c(OC)c(c3)OCCCOc3cccc2c3)cc1OC	–	–	–	ring closure, yield after HPLC ([1]; from COc1ccc(CC[C@H](OC(=O)[C@H]2CCCCN2C(=O)[C@H](c2cc(OC)c(OC)c(OCCCI)c2)C2CCCCC2)c2cccc(O)c2)cc1OC, ether bond, 18-membered ring, K2CO3 (2 equiv), MeCN, 0.3 mM): 26%
COc1ccc(CC[C@@H]2OC(=O)[C@H]3CCCCN3C(=O)[C@@H](C3CCCCC3)c3cc(OC)c(OC)c(c3)OCCOc3cccc2c3)cc1OC	–	–	–	ring closure, yield after HPLC ([1]; from COc1ccc(CC[C@H](OC(=O)[C@H]2CCCCN2C(=O)[C@H](c2cc(OC)c(OC)c(OCCI)c2)C2CCCCC2)c2cccc(O)c2)cc1OC, ether bond, 17-membered ring, K2CO3 (2 equiv), MeCN, 1.0 mM): 42%
COc1ccc(CC[C@@H]2OC(=O)[C@H]3CCCCN3C(=O)[C@@H](C3CCCCC3)c3cc(OC)c(OC)c(c3)OCCCOCC=CCOc3cccc2c3)cc1OC	–	–	–	ring closure, yield after HPLC ([1]; from C=CCOCCCOc1cc([C@@H](C(=O)N2CCCC[C@@H]2C(=O)O[C@@H](CCc2ccc(OC)c(OC)c2)c2cccc(OCC=C)c2)C2CCCCC2)cc(OC)c1OC, rcm bond, 23-membered ring, Grubbs II (0.1 equiv)/1,4-benzoquinone, DCM, 1.0 mM): 58% and 33%
COc1ccc(CC[C@H]2OC(=O)[C@@H]3CCCCN3C(=O)[C@@H](C3CCCCC3)NC(=O)C3(CCC3)NC(=O)COc3cccc2c3)cc1OC [Compound 87, (2′R,5'S,12′R)-12′-cyclohexyl-2′-[2-(3,4-dimethoxyphenyl)ethyl]-3′, 19′-dioxa-10′, 13′, 16′-triazaspiro[cyclobutane-1,15′-tricyclo[18.3.1.0^5,10° ]tetracosane]-1′(24′),20′, 22′-triene-4′, 11′, 14′, 17′-tetrone]	–	–	–	Ki (FKBP12.6; Table 2, read-out: FKBP12.6 Ki): > 80000 nM; Ki (FKBP12; Table 2, read-out: FKBP12 Ki): > 80000 nM; Ki (FKBP51FK1; [3]): 0.4 µM
COc1ccc(CC[C@H]2OC(=O)[C@@H]3CCCCN3C(=O)[C@@H](C3CCCCC3)c3cc(OC)c(c(OC)c3)OC/C=C\COc3cccc2c3)cc1OC [31-(Z)]	328	261	0.07	–
COc1ccc(CC[C@H]2OC(=O)[C@@H]3CCCCN3C(=O)[C@@H](C3CCCCC3)NC(=O)[C@@H]3CCCN3C(=O)COc3cccc2c3)cc1OC [Compound 92, (9S,12R,19S,22R)-12-cyclohexyl-22-[2-(3,4-dimethoxyphenyl)ethyl]-2,21-dioxa-5,11,14-triazatetracyclo[21.3.1.0^5,9.0^14,19]heptacosa-1(26),23(27),24-triene-4,10,13,20-tetrone]	–	–	–	Ki (FKBP12.6; Table 2, read-out: FKBP12.6 Ki): > 80000 nM; Ki (FKBP12; Table 2, read-out: FKBP12 Ki): > 80000 nM; affinity (in words) (FKBP51FK1): substantially reduced affinity
COc1ccc(CC[C@H]2OC(=O)[C@@H]3CCCCN3C(=O)[C@@H](C3CCCCC3)c3cc(OC)c(OC)c(c3)OCCOC/C=C/COc3cccc2c3)cc1OC [37-(E)]	74	182	0.046	–
COc1ccc(CCC2OC(=O)C3CCCCN3C(=O)C(C3CCCCC3)c3cc(OC)c(OC)c(c3)OCC(O)C(O)COc3cccc2c3)cc1OC (single isomer, unassigned) [Compound 64a]	10	23	0.004	–
COc1ccc(CCC2OC(=O)C3CCCCN3C(=O)C(C3CCCCC3)c3cc(OC)c(OC)c(c3)OC/C=C\COc3cccc2c3)cc1OC (stereo not drawn) [35-(Z)]	192	173	0.093	–
COc1ccc(CC[C@H]2OC(=O)[C@@H]3CCCCN3C(=O)[C@@H](C3CCCCC3)NC(=O)[C@H](C)NC(=O)COc3cccc2c3)cc1OC [Compound 91, (2R,5S,12R,15S)-12-cyclohexyl-2-[2-(3,4-dimethoxyphenyl)ethyl]-15-methyl-3,19-dioxa-10,13,16-triazatricyclo[18.3.1.0^5,10]tetracosa-1(24),20,22-triene-4,11,14,17-tetrone]	–	–	–	Ki (FKBP12.6; Table 2, read-out: FKBP12.6 Ki): > 80000 nM; Ki (FKBP12; Table 2, read-out: FKBP12 Ki): > 80000 nM; affinity (in words) (FKBP51FK1): bound more weakly
COc1ccc(CC[C@H]2OC(=O)[C@@H]3CCCCN3C(=O)[C@@H](C3CCCCC3)C/C=C/COCCOc3cccc2c3)cc1OC	–	–	–	ring closure, isolated yield (from C=CCOCCOc1cccc([C@H](CCc2ccc(OC)c(OC)c2)OC(=O)[C@H]2CCCCN2C(=O)[C@H](CC=C)C2CCCCC2)c1, rcm bond, 18-membered ring, Grubbs II (0.1 eq), DCM, 0.5 mM, 30.0 °C, 2.5 h): 92%
COc1ccc(CC[C@H]2OC(=O)[C@@H]3CCCCN3C(=O)[C@@H](C3CCCCC3)c3cc(OC)c(c(OC)c3)OCCOCCCCOc3cccc2c3)cc1OC [Compound 41]	230	449	0.118	–
COc1ccc(CC[C@H]2OC(=O)[C@@H]3CCCCN3C(=O)[C@@H](C3CCCCC3)c3cc(OC)c(c(OC)c3)OCCCCOc3cccc2c3)cc1OC [Compound 39]	191	159	0.053	–
COc1ccc(CC[C@H]2OC(=O)[C@@H]3CCCCN3C(=O)[C@@H](C3CCCCC3)NC(=O)CN(C)C(=O)COc3cccc2c3)cc1OC [Compound 89, (2R,5S,12R)-12-cyclohexyl-2-[2-(3,4-dimethoxyphenyl)ethyl]-16-methyl-3,19-dioxa-10,13,16-triazatricyclo[18.3.1.0^5,10]tetracosa-1(24),20,22-triene-4,11,14,17-tetrone]	–	–	–	Ki (FKBP12.6; Table 2, read-out: FKBP12.6 Ki): > 80000 nM; Ki (FKBP12; Table 2, read-out: FKBP12 Ki): > 80000 nM; Ki (FKBP51FK1; [3]): 3.1 µM
COc1ccc(CC[C@H]2OC(=O)[C@@H]3CCCCN3C(=O)[C@@H](C3CCCCC3)NC(=O)CCNC(=O)COc3cccc2c3)cc1OC [Compound 93, (2R,5S,12R)-12-cyclohexyl-2-[2-(3,4-dimethoxyphenyl)ethyl]-3,20-dioxa-10,13,17-triazatricyclo[19.3.1.0^5,10]pentacosa-1(25),21,23-triene-4,11,14,18-tetrone]	–	–	–	Ki (FKBP12.6; Table 2, read-out: FKBP12.6 Ki): > 80000 nM; Ki (FKBP12; Table 2, read-out: FKBP12 Ki): > 80000 nM; affinity (in words) (FKBP51FK1): reduced affinity; Ki (FKBP51FK1; [2]): 7.4 µM
COc1ccc(CC[C@H]2OC(=O)[C@@H]3CCCCN3C(=O)[C@@H](C3CCCCC3)c3cc(OC)c(OC)c(c3)OCCCCCOc3cccc2c3)cc1OC [Compound 44]	65	88	0.043	–
COc1ccc(CCC2OC(=O)C3CCCCN3C(=O)C(C3CCCCC3)c3cc(OC)c(OC)c(c3)OCC(O)C(O)COc3cccc2c3)cc1OC (single isomer, unassigned) [Compound 64b]	17	34	0.013	–
COc1ccc(CC[C@H]2OC(=O)[C@@H]3CCCCN3C(=O)[C@@H](C3CCCCC3)c3cc(OC)c(OC)c(c3)OCCOc3cccc2c3)cc1OC [Compound 57]	78	308	0.047	–
COc1ccc(CC[C@@H](OC(=O)[C@@H]2CCCCN2C(=O)[C@H](c2cc(OC)c(OC)c(OC)c2)C2CCCCC2)c2cccc(OCC(=O)O)c2)cc1OC [SAFit1, reference compound]	–	–	–	Ki (FKBP12.6; Table 2, read-out: FKBP12.6 Ki): 19 ± 2 nM; Ki (FKBP12; Table 2, read-out: FKBP12 Ki): 163 ± 9 nM; Ki (FKBP51FK1; read-out: FKBP51FK1 Ki, Table 2, [a] standard error from three, [c] error from two independent measurements): 0.004 ± 0.001 µM
COc1ccc(CC[C@H]2OC(=O)[C@@H]3CCCCN3C(=O)[C@@H](C3CCCCC3)c3cc(OC)c(OC)c(c3)OCCCOCCCCOc3cccc2c3)cc1OC [Compound 46]	116	449	0.08	–
COc1ccc(CC[C@H]2OC(=O)[C@@H]3CCCCN3C(=O)[C@@H](C3CCCCC3)c3cc(OC)c(c(OC)c3)OCCCCCOc3cccc2c3)cc1OC [Compound 40]	198	204	0.102	–
